Structures can show the parent of a compound that is named as a salt. Where two headings read alike, the source gives them in different places.
How the values were obtained:
contracted rat aorta = assay: In vitro rat aorta assay: relaxation of aorta strips contracted with phenylephrine; type: cell-based; conditions: read-out: EC50 (mean): concentration at which residual contraction is 50% of maximum
Description: Strips of thoracial rat aortae (without aortic arch, helically cut; length 1-1.5 cm; width about 2 mm) were place in an organ bath [20 ml; Krebs Ringer medium bubbled with O2 /CO2 (95/5%) at 37° C.]. A resting tension of 0.5 g was applied and the preparations were equilibrated during 100 min (fresh buffer solution every 20 min). The strips were isotonically contracted with 10^-7 M phenylephrine.
Drug-induced relaxation was tested at increasing concentration (half log steps), till maximal or full relaxation (corresponding to basal precontraction value of organ length) had been reached.
Responses were calculated as change in organ length relatively to maximal displacement by contraction, EC50 values corresponding to the drug concentration at which residual contraction is 50% of maximum.

arterial blood pressure = assay: Anesthetized rabbit experiments: arterial blood pressure and heart rate after infusion; type: in vivo, New Zealand white rabbits; note: key: Inactive: No decrease or decrease less than 5%; Active: Decrease between 5 and 40%; Very Active: Decrease greater than 40%
Description: In the anesthetized rabbits, the decrease of arterial blood pressure and the effect on the heart rate after infusion of the test compounds was determined.
New Zealand white rabbits (2.5-3 kg) were anesthetized (30 mg×kg^-1 pentobarbitone, i.v., supplemental doses as needed). Tracheotomy was performed, and an intra-tracheal cannula was inserted. No artificial ventilation was applied and body temperature was maintained at 37°-38° C.
Left ventricular pressure (LVP) was measured (Millar Mikro-Tip catheter via the right carotid artery with transducer in the left ventricle). The LVP signal was differentiated electronically to obtain the rate of change of LVP (LV dP/dt). The heart rate (HR) was derived from the LVP pulse signal. The jugular vein was cannulated for infusion of the test compounds. Aortic blood pressure (SAP and DAP) was monitored (Gould-Statham pressure transducer) by inserting a polyethylene catheter filled with heparin (50 IU×ml^-1) through the femoral artery into the abdominal aorta. Heparin (150 IU×kg^-1, i.v.) was administered to prevent blood clotting.
After completion of surgical procedures, the rabbits were allowed to recover for 15 minutes before drug administration was started.
Drugs were infused at constant rate (0.5 ml×min^-1) for 10 minutes at various doses, resulting in a typical dose range of 2.0, 20.0 and 200 μg×kg^-1 ×min^-1 (2.5 kg rabbit).
Due to poor solubility, 1 mg×ml^-1 solutions of all the compounds tested were prepared in Intralipid® 10%, containing 10% (v/v) dimethyl sulfoxide (DMSO). […] At the infusion of lower doses, the 1 mg×ml^-1 stock solutions were diluted with Intralipid® 10%.
The presented data are based on the effects obtained at the end of the 10 min infusion period at the highest dose tested (150-200 μg×kg^-1 ×min^-1). The indicated ratings are referring to the effects (decrease, defined as percentage of basal value before infusion of the drug) on arterial blood pressure as follows: […]

[1] = rat aorta strips contracted with 10^-7 M phenylephrine
[2] = anesthetized rabbit, end of 10 min infusion at highest dose tested (150-200 μg×kg^-1×min^-1), decrease as percentage of basal value

Compound	EC50 (contracted rat aorta; [1]) [nM]	Activity with regard to the lowering of blood pressure (arterial blood pressure; [2])	also measured
2-Butyl-5,5-dimethyl-N-(4-methylbenzenesulphonyl)-4-[(5-nitroxyisosorbide)carbonyl]thiazolidine [Example IV]	9500	–	–
CCCCC1SCC(C(=O)OC2COC3C(O[N+](=O)[O-])COC23)N1S(=O)(=O)c1ccc(C)cc1 (stereo not shown) [Example I, 2-Butyl-N-(4-methylbenzenesulphonyl)-4-[(5-nitroxyisosorbide)carbonyl]thiazolidine]	750	–	–
CCCCC1SCC(C(=O)OC2COC3C(O[N+](=O)[O-])COC23)N1C(=O)c1ccccc1 (stereo not shown) [Example II, N-benzoyl-4-[(5-nitroxyisosorbide)carbonyl]-2-butylthiazolidine]	740	–	–
O=C(COc1ccccc1C1NC(C(=O)O)CS1)NCCO[N+](=O)[O-] (stereo not shown) [Example IX, 4-Carboxy-2-{2-[(2-nitroxyethyl)aminocarbonylmethoxyl]phenyl}thiazolidine]	700	–	–
CC(=O)N1C(C(=O)NCCO[N+](=O)[O-])CSC1c1ccccc1C(=O)O (stereo not shown) [Example VI, N-acetyl-2-(2-carboxyphenyl)-4-[(2-nitroxyethyl)aminocarbonyl]thiazolidine]	1620	–	–
CC(=O)N1C(C(=O)NCCO[N+](=O)[O-])CSC1c1ccccc1 (stereo not shown) [Example VIII, N-acetyl-2-phenyl-4-[(2-nitroxyethyl)aminocarbonyl]thiazolidine]	1880	–	–
COc1cc(C2NC(C(=O)O)CS2)ccc1OCC(=O)NCCO[N+](=O)[O-] (stereo not shown) [Example X, 4-Carboxy-2{3-methoxy-4-[(2-nitroxyethyl)aminocarbonylmethoxy]phenyl}thiazolidine]	390	–	–
CCOc1cccc(C2NC(C(=O)O)CS2)c1OCCO[N+](=O)[O-] (stereo not shown) [Example XII, 4-Carboxy-2-[3-ethoxy-2-(2-nitroxyethoxy)phenyl]thiazolidine]	650	–	–
O=C(O)C1CSC(c2ccccc2OCCO[N+](=O)[O-])N1 (stereo not shown) [Example XVI, 4-Carboxy-2-[2-(2-nitroxyethoxy)phenyl]thiazolidine]	–	Active	–
CC(=O)N1C(C(=O)O)CSC1c1ccccc1OCCO[N+](=O)[O-] (stereo not shown) [Example XVII, N-acetyl-4-carboxy-2-[2-(2-nitroxyethoxy)phenyl]thiazolidine]	720	–	–
O=C(O)C1CSC(c2cc([N+](=O)[O-])ccc2OCCO[N+](=O)[O-])N1 (stereo not shown) [Example XXI, 4-Carboxy-2-[5-nitro-2-(2-nitroxyethoxy)phenyl]thiazolidine]	–	–	EC50 (contracted rat aorta; Rattus norvegicus): 25 nM; Activity with regard to the lowering of blood pressure (arterial blood pressure; rabbit, in vivo): Active
O=C(COc1ccc(C2NC(C(=O)O)CS2)cc1)NCCO[N+](=O)[O-] (stereo not shown) [Example XXIV, 4-Carboxy-2-{4-[(2-nitroxyethyl)aminocarbonylmethoxy]phenyl}thiazolidine]	900	–	–
COc1cc(C2NC(C(=O)O)CS2)cc(Br)c1OCCO[N+](=O)[O-] (stereo not shown) [XXIII, 2-[3-Bromo-5-methoxy-4-(2-nitroxyethoxy)phenyl]-4-carboxythiazolidine]	820	–	–
CC(C)(CO[N+](=O)[O-])C(=O)N1C(C(=O)O)CSC1c1ccccc1 (stereo not shown) [XXXIII, 4-Carboxyl-N-(2,2-dimethyl-3-nitroxypropionyl)-2-phenylthiazolidine]	2770	–	–
O=C(O)C1CSC(c2ccccc2OCCCCO[N+](=O)[O-])N1 (stereo not shown) [XXXIV, 4-Carboxy-2-[2-(4-nitroxybutoxy)phenyl]thiazolidine]	17	–	–

Now from value to compound, other results behind:

EC50 (contracted rat aorta; [1]) [nM]	Compound	Activity with regard to the lowering of blood pressure (arterial blood pressure; [2])	also measured
54	4-Carboxy-2-[3-4-(2-nitroxyethoxy)phenyl]thiazolidine [Example XXXV]	–	–
21	O=C(O)C1CSC(c2ccccc2OC[C@H]2CC[C@H](CO[N+](=O)[O-])CC2)N1 (relative stereo) [Example XXIX, 4-Carboxy-2-(2-{[4-nitroxymethyl-(trans)-cyclohexyl]methoxy}phenyl)thiazolidine]	Active	–
330	O=C(NCCO[N+](=O)[O-])c1ccc(C2NC(C(=O)O)CS2)cc1 (stereo not shown) [Example V, 4-Carboxy-2-{4-[(2-nitroxyethyl)aminocarbonyl]phenyl}thiazolidine]	–	–
20	CCOC(=O)C1CSC(c2ccc(C(=O)NCCO[N+](=O)[O-])cc2)N1 (stereo not shown) [Example VII, 4-Ethoxycarbonyl-2-{4-[(2-nitroxyethyl)aminocarbonyl]phenyl}thiazolidine×HCl]	–	–
270	CCOC(=O)C1CSC(c2ccc(OCC(=O)NCCO[N+](=O)[O-])c(OC)c2)N1 (stereo not shown) [Example XI, 4-Ethoxycarbonyl-2-{[3-methoxy-4-(2-nitroxyethyl)aminocarbonylmethoxy]phenyl}-thiazolidine hydrochloride]	–	–
22	O=C(O)C1CSC(c2ccc(OCCO[N+](=O)[O-])cc2)N1 (stereo not shown) [Example XIII, 4-Carboxy-2-[4-(2-nitroxyethoxy)phenyl]thiazolidine]	Active	–
230	COc1cccc(C2NC(C(=O)O)CS2)c1OCCO[N+](=O)[O-] (stereo not shown) [Example XIV, 4-Carboxyl-2-[3-methoxy-2-(2-nitroxyethoxy)phenyl]thiazolidine]	–	–
7	COc1ccc(OCCO[N+](=O)[O-])c(C2NC(C(=O)O)CS2)c1 (stereo not shown) [Example XV, 4-Carboxy-2-[5-methoxy-2-(2-nitroxyethoxy)phenyl]thiazolidine]	Active	–
47	O=C(O)C1CSC(c2cccc(OCCO[N+](=O)[O-])c2)N1 (stereo not shown) [Example XVIII, 4-Carboxy-2-[3-(2-nitroxyethoxy)phenyl]thiazolidine]	–	–
23	CC(=O)N1C(CCc2ccccc2)SCC1C(=O)OC[C@H]1CC[C@H](CO[N+](=O)[O-])CC1 (stereo partly shown) [Example XXII, N-acetyl-2-(2-phenylethyl)-4-[(4-nitroxymethylcyclohexyl)methoxycarbonyl]thiazolidine]	Active	–
20	O=C(O)C1CSC(c2cc(Cl)ccc2OCCO[N+](=O)[O-])N1 (stereo not shown) [Example XXV, 4-Carboxy-2-[5-chloro-2-(2-nitroxyethoxy)phenyl]thiazolidine]	Active	–
102	CC(C)(COc1ccccc1C1NC(C(=O)O)CS1)CO[N+](=O)[O-] (stereo not shown) [Example XXX, 4-Carboxy-2-[2-(2,2-dimethyl-3-nitroxypropoxy)phenyl]thiazolidine]	Active	–
37	O=C(O)C1CSC(c2ccccc2OCCCO[N+](=O)[O-])N1 (stereo not shown) [Example XXXII, 4-Carboxy-2-[2-(3-nitroxypropoxy)phenyl]thiazolidine]	–	–
9.7	O=[N+]([O-])OCCOc1cccc(C2NCCS2)c1 (stereo not shown) [XIX, 2-[3-(2-Nitroxyethoxy)phenyl]thiazolidine×HCl]	–	–
57	CC1(C)SC(c2ccccc2OCCO[N+](=O)[O-])N[C@H]1C(=O)O (stereo partly shown) [XXVI, 4-Carboxy-5,5-dimethyl-2-[(2-nitroxyethoxy)phenyl]thiazolidine]	Active	–
6.7	O=[N+]([O-])OCCOc1ccccc1C1NCCS1 (stereo not shown) [XXVII, 2-[(2-Nitroxyethoxy)phenyl]thiazolidine oxalate hydrate]	Active	–
9.4	CCOC(=O)[C@@H]1CSC(c2ccccc2OCCO[N+](=O)[O-])N1 (stereo partly shown) [XXVIII, 4-Ethoxycarbonyl-2-[2-(2-nitroxyethoxy)phenyl]thiazolidine 4-toluenesulphonate]	Active	–
48	CC(COc1ccccc1C1NC(C(=O)O)CS1)O[N+](=O)[O-] (stereo not shown) [XXXVI, 4-Carboxy-2-[2-(2-nitroxypropoxy)phenyl]thiazolidine]	Active	–
98	N-benzoyl-2-butyl-5,5-dimethyl-4-[(5-nitroxyisosorbide)carbonyl]thiazolidine [Example III]	Active	–

— patent US5385922A, “Thiazolidine derivatives” (Cedona Pharmaceuticals B.V., priority 1990, dated 1995)
